# pKi: −log10 of the molar value. Counter-ions that a name gives are not always drawn. Like-named read-outs stand apart in the source and are kept apart here.
# Experiments:
# Assay type in all cases: biochemical
# [1] = target: mMASP-2 (Mus musculus (Mouse), UniProt Q91WP0); experiment: Enzymatic inhibition of mMASP-2; settings: read-out: mMASP-2 Ki
# [2] = target: MASP-2 (CCP1-CCP2-SP) (Homo sapiens (Human), UniProt O00187); experiment: biochemical
# [3] = target: human α-thrombin (Homo sapiens (Human), UniProt P00734); experiment: Enzymatic assay for thrombin (Boc-VPR-AMC substrate); settings: for pKi: read-out: Thrombin Ki; for Ki: Thrombin Ki (μM)
# [4] = MASP-2 inhibition versus thrombin
# [5] = selectivity for MASP-2 inhibition versus thrombin
# MASP-2 (CCP1-CCP2-SP), sequence (O00187 445-686): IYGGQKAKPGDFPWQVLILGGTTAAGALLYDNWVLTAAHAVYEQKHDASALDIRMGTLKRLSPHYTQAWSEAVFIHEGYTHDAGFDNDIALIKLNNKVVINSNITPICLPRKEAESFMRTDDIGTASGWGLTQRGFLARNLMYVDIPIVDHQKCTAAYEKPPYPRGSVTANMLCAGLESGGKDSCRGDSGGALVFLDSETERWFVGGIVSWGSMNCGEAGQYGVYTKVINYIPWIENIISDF
# mMASP-2, sequence (Q91WP0 20-685): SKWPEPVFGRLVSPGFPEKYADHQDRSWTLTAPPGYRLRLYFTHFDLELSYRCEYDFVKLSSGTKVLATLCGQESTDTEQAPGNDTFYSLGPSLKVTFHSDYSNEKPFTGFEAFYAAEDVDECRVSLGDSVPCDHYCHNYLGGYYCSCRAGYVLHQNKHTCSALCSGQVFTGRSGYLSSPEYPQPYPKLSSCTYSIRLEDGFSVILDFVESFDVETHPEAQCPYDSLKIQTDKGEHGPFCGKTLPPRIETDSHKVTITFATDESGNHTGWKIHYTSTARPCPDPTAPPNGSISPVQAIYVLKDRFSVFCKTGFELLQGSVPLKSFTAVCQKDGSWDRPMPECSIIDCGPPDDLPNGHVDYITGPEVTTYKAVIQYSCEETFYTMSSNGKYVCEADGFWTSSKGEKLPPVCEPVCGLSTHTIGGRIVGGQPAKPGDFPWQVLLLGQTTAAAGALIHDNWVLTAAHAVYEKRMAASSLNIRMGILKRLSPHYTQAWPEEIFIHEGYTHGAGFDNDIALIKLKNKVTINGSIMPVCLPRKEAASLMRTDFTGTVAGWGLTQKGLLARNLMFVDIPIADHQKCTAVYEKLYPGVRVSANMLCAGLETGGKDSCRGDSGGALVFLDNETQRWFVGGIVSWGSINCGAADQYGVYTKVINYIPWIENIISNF
Compound,pKi [2],"MASP-2 vs. thrombin selectivity [2, 4]",pKi ([2]; read-out: MASP-2 Ki),pKi [3],further results
C[C@H](NC(=O)[C@H]1C[C@](O)(c2ccccc2)CCN1)C(=O)NCc1ccc(C(=N)N)cc1 [compound 1101],–,–,–,–,pKi [1]: > 6.30
"C[C@H](NC(=O)[C@H]1C[C@@H](c2ccccc2)CCN1)C(=O)NCc1ccc(C(=N)N)cc1 [compound 1230, (2R,4S)—N—((S)-1-((4-Carbamimidoylbenzyl)amino)-1-oxopropan-2-yl)-4-phenylpiperidine-2-carboxamide]",–,–,–,–,pKi [1]: > 6.30
"Cc1ccnc(-c2nc3cc(C(=N)N)ccc3[nH]2)c1 [compound 2005, 2-(4-methylpyridin-2-yl)-1H-benzo[d]imidazole-5-carboximidamide dihydrochloride]",< 4.60,–,–,–,"MASP-2 versus thrombin selectivity ([2]; +Zn): + (+Zn) (1.0 to 5.0-fold); pKi ([2]; +Zn, read-out: MASP-2 Ki): > 7.30; pKi ([3]; +Zn): > 7.30; Ki ([3]; +EDTA): > 25 µM"
C[C@H](NC(=O)[C@H](N)CCc1ccccc1F)C(=O)NCc1ccc(C(=N)N)cc1 [compound 1049],–,** (5.0 to 25-fold),> 6.30,> 6.30,–
"C[C@H](NC(=O)[C@H]1C[C@H](c2ccccc2)CN1)C(=O)NCc1ccc(C(=N)NC(=O)OCc2ccccc2)cc1 [compound 1259, Benzyl (imino(4-(((S)-2-((2R,4R)-4-phenylpyrrolidine-2-carboxamido)propanamido)methyl)phenyl)methyl)carbamate]",5.00 to 5.60,–,–,< 4.60,–
"COCc1cccc(-c2nc3cc(C(=N)N)ccc3[nH]2)n1 [compound 2011, 2-(6-(methoxymethyl)pyridin-2-yl)-JH-benzo[d]imidazole-5-carboximidamide dihydrochloride]",< 4.60,–,–,–,"MASP-2 versus thrombin selectivity ([2]; +Zn): ++ (+Zn) (5.0 to 25-fold); pKi ([2]; +Zn, read-out: MASP-2 Ki): > 6.30; pKi ([3]; +Zn): > 5.60; Ki ([3]; +EDTA): > 25 µM"
"C[C@H](NC(=O)[C@@H](CCc1ccccc1)NCc1ccccc1N1CCN(C)CC1)C(=O)NCc1ccc(C(=N)N)cc1 [compound 1232, (R)—N—((S)-1-((4-Carbamimidoylbenzyl)amino)-1-oxopropan-2-yl)-2-((2-(4-methylpiperazin-1-yl)benzyl)amino)-4-phenylbutanamide]",5.60 to 6.30,–,–,> 6.30,"MASP-2 vs. thrombin selectivity [2, 5]: −− (<1.0-fold)"
C[C@H](NC(=O)[C@@H](CCc1ccccc1)NC1CCCC1)C(=O)NCc1ccc(C(=N)N)cc1 [compound 1122],–,−− (less than 1.0-fold),> 6.30,> 6.30,–
"Cc1cc(N)ncc1CNC(=O)[C@H](C)NC(=O)[C@H](N)CCc1ccccc1 [compound 1243, (R)-2-Amino-N—((S)-1-(((6-amino-4-methylpyridin-3-yl)methyl)amino)-1-oxopropan-2-yl)-4-phenylbutanamide]",4.60 to 5.00,–,–,< 4.60,–
"Cc1cc(CNC(=O)[C@H](C)NC(=O)[C@H](N)CCc2ccccc2)cnc1N [compound 1244, (R)-2-Amino-N—((S)-1-(((6-amino-5-methylpyridin-3-yl)methyl)amino)-1-oxopropan-2-yl)-4-phenylbutanamide]",5.60 to 6.30,–,–,< 4.60,"MASP-2 vs. thrombin selectivity [2, 5]: ** (≥5.0 to <25-fold)"
COc1ccc(CC[C@@H](N)C(=O)N[C@@H](C)C(=O)NCc2ccc(C(=N)N)cc2)c(OC)c1 [compound 1111],–,* (1.0 to 5.0-fold),> 6.30,> 6.30,–
"C[C@H](NC(=O)[C@H](N)CCc1ccccc1)C(=O)NCc1cc(Cl)ccc1[N+](=O)[O-] [compound 1246, (R)-2-Amino-N—((S)-1-((5-chloro-2-nitrobenzyl)amino)-1-oxopropan-2-yl)-4-phenylbutanamide]",4.60 to 5.00,–,–,–,"MASP-2 vs. thrombin selectivity [2, 5]: * (≥1.0 to <5.0-fold); Ki [3]: 10 to 25 µM"
"N=C(N)c1ccc2[nH]c(-c3c[nH]cn3)nc2c1 [compound 2000, 2-(1H-imidazol-4-yl)-1H-benzo[d]imidazole-5-carboximidamide dihydrochloride]",< 4.60,–,–,–,"MASP-2 versus thrombin selectivity ([2]; +Zn): ++ (+Zn) (5.0 to 25-fold); pKi ([2]; +Zn, read-out: MASP-2 Ki): > 6.30; pKi ([3]; +Zn): > 5.00; Ki ([3]; +EDTA): > 25 µM"
COC(=O)COc1ccc(CN[C@H](CCc2ccccc2)C(=O)N[C@@H](C)C(=O)NCc2ccc(C(=N)N)cc2)cc1 [compound 1151],–,−− (less than 1.0-fold),> 6.30,> 6.30,–
C[C@H](NC(=O)[C@H](N)CCc1cc(F)cc(F)c1)C(=O)NCc1ccc(C(=N)N)cc1 [compound 1087],–,** (5.0 to 25-fold),> 6.30,> 6.30,–
C[C@H](NC(=O)[C@H](N)CCc1cccc(C(F)(F)F)c1)C(=O)NCc1ccc(C(=N)N)cc1 [compound 1120],–,** (5.0 to 25-fold),> 6.30,> 6.30,–
